{
  "source": "patent US11278534B2",
  "about": "“Enantiomers of substituted thiazoles as antiviral compounds” (Innovative Molecules GmbH, priority 2017, dated 2022)",
  "key": {"[1]": {"system": "HSV-1", "assay": "activity selectivity assay, HSV-1 infected Vero cells", "assay_type": "cell-based", "details": "Human alphaherpesvirus 1", "experimental": "(§1) HSV (HSV-1 Walki, HSV-1F, HSV-2 MS, HSV clinical isolates and HSV resistant strains) was cultivated on Vero cells (ATCC CCL-81) under the following conditions: The cells were grown in M199 medium (5% foetal calf serum, 2 mM glutamine, 100 IU/mL penicillin, 100 μg/mL streptomycin) in cell culture bottles at 37° C. and 5% CO2. The cells were splitted twice per week (1:4). For the infection, the medium was removed, the cells were washed with Hank's solution, detached using 0.05% trypsin, 0.02% EDTA and incubacted at a density of 4×10^5 cells/mL under the above-mentioned conditions for 24 h. The medium was removed and the virus solution was added at an m.o.i of <0.05 in a volume of 2 mL per 175 cm^2 surface. The infected cells were incubated at 37° C., 5% CO2 for 1 h and then the medium was made up to a volume of 50 mL per 175 cm^2 bottle. […] The virus was released by freezing (−80° C.) and thwawing (37° C.) the infected cultures twice. Cell debris was removed by centrifugation (300 g, 10 min, 4° C.) and the supernatant was frozen in aliquots at −80° C.\n(§2) The virus titre was determined using a plaque assay. To this end, Vero cells were seeded in 24-well plates at a density of 4×10^5 cells per well and, after 24 h of incubation (37° C., 5% CO2) infected with 100 μL of inoculum (dilutions (10^−2 to 10^−12) of the virus stock). 1 h after the infection, the medium was removed and the cells were covered with 1 mL of overlay medium (0.5% methylcellulose, 0.22% sodium bicarbonate, 2 mM glutamine, 100 IU/mL penicillin, 100 μg/mL streptomycin, 5% foetal calf serum in MEM-Eagle medium with Earl's salt) and incubated for 3 d in a cell incubator at (37° C., 5% CO2). The cells were then fixated using 4% formaline for 1 h, washed with water, stained with Giemsa for 30 min and then washed and dried. Using a plaque viewer, the virus titre was determined.\n(§3) The antiviral action was determined using a patented (DE10235967 and WO2004/015416) and subsequently published activity selectivity assay (G. Kleymann et al. J. Biomol. Screen. 2004; 9, 578) in 96- or 384-well mictrotitre plates using various cell lines of neuronal, lymphoid and epithelial origin, such as, for example, Vero (african green monkey kidney cells), MEF (murine embryonal fibroblasts), HELF (human embryonal fibroblasts), NT2 (human neuronal cell line) or Jurkat (human lymphoid T-cell line). The relevant experimental details of the above mentioned patent and publication to evaluate the antiviral activity of the invention (disclosed compounds) are described below.\n(§4) The effect of the substances on the spreading of the cytopathogenic effect was determined in comparision to the reference compound acyclovir-sodium (Zovirax™), a clinically approved anti-herpes chemotherapeutic.\n(§5) The compounds (50 mM stock solution dissolved in DMSO) are examined on microtitre plates (for example 96-well flat bottom cell culture plates) at a final concentration of 250 to 0.5 μM or, in case of potent antiviral compounds, 250 to 0.5 nM in 2 to 4 replications (4 to 2 substances per plate). Also examined are toxic and cytostatic effects or precipitation of the compounds. […]"}, "[2]": {"system": "HSV-1", "assay": "animal model, intranasal HSV-1 infection of mice, survival", "assay_type": "in vivo, BALB/cABom strain", "details": "Human alphaherpesvirus 1, inhaled or nasal, 120 h; HSV-1, mice, treatment for 5 days; read-out: ED50 (50% of the infected animals survive)", "experimental": "(§6) Animal experiments were performed according to patent WO2001/047904 or subsequent publications (U. A. K. Betz et al. Antimicrob. Agents Chemother. 2002:46, 1766 or G. Kleymann et al. Nat. Med. 2002; 8, 392). The relevant experimental details of the above mentioned patent and publication to evaluate the antiviral activity of the invention (disclosed compounds) in-vivo (animal models) are described below.\n(§7) 6 week-old female mice, BALB/cABom strain were obtained from a commercial breeder.\n(§8) Infection: The animals were anaesthetized with Et2O in a sealed glass vessel. 50 μL of a dilution of the virus stock (infection dose 5×10^4 PFU (Plaque forming units)) were introduced into the nose of the anaesthetized animals using a pipette. In 90 to 100% of the animals, this infection dose causes death by generalized infection with prominent repiratory and central-nervous symptoms on average after 5 to 8 days.\n(§9) 6 hours after infection animals were treated with doses of 0.1-150 mg/kg of body mass, 3 times per day at 7 am, […] (tid) or 2 times per day at 7 am and […] (bid) or once daily at […] (od) for a period of 5 days. […] After the last administration, the animals were monitored further and the time of death was determined."}, "[3]": {"system": "HSV-2", "assay": "activity selectivity assay, HSV-2 infected Vero cells", "assay_type": "cell-based", "details": "Human alphaherpesvirus 2", "experimental": "as §1, §2, §3, §4, §5"}, "[4]": {"system": "HSV-1 ACV resistant", "assay": "activity selectivity assay, HSV-1 ACV resistant", "assay_type": "cell-based", "details": "Human alphaherpesvirus 1", "experimental": "as §1, §2, §3, §4, §5"}, "[5]": {"molecular_target": "Human Carboanhydrase II (Homo sapiens, UniProt P00918)", "assay": "carbonic anhydrase activity assay (pH indicator method)", "assay_type": "biochemical", "details": "for carbonic anhydrase inhibition: result in words"}, "[6]": {"assay": "aqueous solubility (PBS, pH 7.4), shake flask", "assay_type": "physicochemical", "experimental": "The aqueous solubility (PBS, pH 7.4) was determined at Eurofins, Cerep, Panlabs according to C. A. Lipinski et al. Adv. Drug Del. Rev. 1997:46, 3. Measurement of the aqueous solubility was performed according to Lipinski, C. A. et al. Adv. Drug Del. Rev. 1997:46, 3. The relevant information from the literature is described below. […] In addition, chromatographic purity (%) was defined as the peak area of the principal peak relative to the total integrated peak area in the HPLC chromatogram of the calibration standard."}, "[7]": {"system": "HSV-2", "assay": "animal model, intranasal HSV-2 infection of mice, survival", "assay_type": "in vivo, BALB/cABom strain", "details": "Human alphaherpesvirus 2, inhaled or nasal, 120 h; HSV-2, mice, treatment for 5 days; read-out: ED50 (50% of the infected animals survive)", "experimental": "as §6, §7, §8, §9"}},
  "data": [
    {"smiles": "Cc1nc(N(C)C(=O)Cc2ccc(-c3cc(F)ccc3F)cc2)sc1[S@@](C)(=N)=O", "note": "[Example 7(−), (−)-(S)-2-(2′,5′-Difluoro-[1,1′-biphenyl]-4-yl)-N-methyl-N-(4-methyl-5-(S-methylsulfonimidoyl)thiazol-2-yl)acetamide]", "values": [
      {"measurement": "IC50", "setting": "[1]", "result": "10 to 50", "unit": "nM"},
      {"measurement": "ED50", "setting": "[2]", "result": "< 5", "unit": "mg/kg"},
      {"measurement": "IC50", "setting": "[3]", "result": "10 to 50", "unit": "nM"},
      {"measurement": "IC50", "setting": "[4]", "result": "10 to 50", "unit": "nM"},
      {"measurement": "IC50", "setting": "[5]", "result": "> 10", "unit": "µM"},
      {"measurement": "carbonic anhydrase inhibition", "setting": "[5]", "result": "no or significantly reduced carbonic anhydrase inhibition"}
    ]},
    {"smiles": "Cc1nc(N(C)C(=O)Cc2ccc(-c3cc(F)ccc3F)cc2)sc1S(C)(=N)=O", "note": "(racemic) [Example 7, 2-(2′,5′-Difluoro-[1,1′-biphenyl]-4-yl)-N-methyl-N-(4-methyl-5-(S-methylsulfonimidoyl)thiazol-2-yl)acetamide]", "values": [
      {"measurement": "IC50", "setting": "[1]", "result": "25 to 100", "unit": "nM"},
      {"measurement": "solubility at 24 h", "setting": "[6]; aqueous buffer, kinetic from dmso stock, pH 7.4, shake flask, 24 h incubation, rt, read-out: Solubility [μM] (PBS, pH 7.4, 200 μM Test concentration)", "result": 5, "unit": "µM"},
      {"measurement": "increase of aqueous solubility in comparison to Example 87 (WO2001/047904)", "setting": "[6]; pH 7.4", "result": "at least one order of mangitude"},
      {"measurement": "ED50", "setting": "[2]", "result": "< 10", "unit": "mg/kg"},
      {"measurement": "IC50", "setting": "[3]", "result": "25 to 100", "unit": "nM"},
      {"measurement": "IC50", "setting": "[4]", "result": "25 to 100", "unit": "nM"},
      {"measurement": "IC50", "setting": "[5]", "result": "> 10", "unit": "µM"},
      {"measurement": "carbonic anhydrase inhibition", "setting": "[5]", "result": "no or significantly reduced carbonic anhydrase inhibition"},
      {"measurement": "ED50", "setting": "[7]", "result": "< 10", "unit": "mg/kg"}
    ]}
  ]
}
